According to patent US20240174634A1, “Aldehyde Dehydrogenase Inhibitors and Their Therapeutic Use” (priority 2020, published 2024):
pIC50: −log10 of the molar value.

Target: T1, ALDH2 (Homo sapiens, UniProt P05091)
T1 sequence (P05091 18-517): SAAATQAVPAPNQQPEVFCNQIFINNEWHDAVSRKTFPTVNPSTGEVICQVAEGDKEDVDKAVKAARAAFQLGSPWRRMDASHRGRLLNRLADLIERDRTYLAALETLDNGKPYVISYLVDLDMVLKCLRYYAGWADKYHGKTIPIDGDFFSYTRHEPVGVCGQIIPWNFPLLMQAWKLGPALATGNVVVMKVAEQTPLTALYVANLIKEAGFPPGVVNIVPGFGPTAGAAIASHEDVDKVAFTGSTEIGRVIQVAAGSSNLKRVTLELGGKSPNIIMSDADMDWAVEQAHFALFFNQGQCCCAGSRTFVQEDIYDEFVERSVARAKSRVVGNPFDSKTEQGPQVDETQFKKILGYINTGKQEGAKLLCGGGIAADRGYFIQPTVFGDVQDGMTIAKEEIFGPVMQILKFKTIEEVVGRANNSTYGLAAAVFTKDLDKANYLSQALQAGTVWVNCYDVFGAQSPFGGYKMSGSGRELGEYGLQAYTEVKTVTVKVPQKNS
Test: Selectivity biochemical assay, NAD(P)H-Glo Detection System
Method: Materials: ALDH2 was purchased from Abnova. Tris(hydroxymethyl)aminomethane (Tris) was purchased from MP Biomedicals. TCEP, ethylenediaminetetraacetic acid (EDTA), propionaldehyde, DMSO and Tween-20 were purchased from Sigma. Nicotinamide adenine dinucleotide (NAD) was obtained from Abcam. The NAD(P)H-Glo™ Detection System was purchased from Promega. White, non-binding surface, 384 well plates were supplied by Corning (#3574).
Method: Inhibition of ALDH1A3 was assessed using the NAD(P)H-Glo™ Detection System (Cat. No. G9062) from Promega. This assay detects the production of NADH from NAD by ALDH1A3 via the coupled enzymatic conversion of a proluciferin reductase substrate to generate a luminescent signal. Inhibition of ALDH1A3 by small molecule inhibitors will result in reduction or abrogation of luminescence signal increase above background. Inhibition of ALDH1A1, ALDH1A2 and ALDH2 (selectivity assays) were assessed using the same assay.
Compounds were dosed into Corning 384 well assay plates using an Echo acoustic dispenser to give 10 point curves in a 3-fold dilution series. Compounds were dispensed from a 20 mM DMSO stock and initially screened at a top concentration of 20 μM (ALDH1A3) or 250 μM (ALDH1A1, ALDH1A2 & ALDH2). Enzyme was added to the plate in a 5 μL volume, according to the final concentrations in table 1 below, and pre-incubated with compound for 30 minutes at room temperature before the addition of 5 μL of the substrate (propionaldehyde) and cofactor (NAD), to effect final concentrations equal to the Km as shown in Table 1. The assay buffer used consisted of 40 mM Tris for 1A1 (pH 7.6), 1A2 (pH 7.6) and 1A3 (pH 9.0) and 10 mM Tris for ALDH2 (pH 8.0) supplemented with 1 mM TCEP, 0.01% Tween-20, 0.1 mM EDTA. The reaction mix was incubated at 26° C. on a shaking incubator for 30 minutes before being stopped by the addition of 10 μL of the Promega detection reagent and 100×IC50 of inhibitors of the respective isoforms. After stopping the reaction the plate was incubated for 60 minutes at room temperature and the luminescence signal read on a PheraStar FS microplate reader (BMG Labtech) and resulting IC50 values were calculated using Dotmatics software.
Enzyme, substrate and cofactor concentrations were selected to ensure the reaction ran under initial velocity conditions.

SMILES	pIC50
O=C1CCc2cc(OCCN(CCO)Cc3cccnc3)ccc2N1 [ALDHI-3005, 6-[2-[2-hydroxyethyl(3-pyridylmethyl)amino]ethoxy]-3,4-dihydro-1H-quinolin-2-one]	≤ 4.00
C[C@H](c1ccccc1)N(CCO)CCOc1ccc2c(c1)CCC(=O)N2 [ALDHI-3006, 6-[2-[2-hydroxyethyl-[(1R)-1-phenylethyl]amino]ethoxy]-3,4-dihydro-1H-quinolin-2-one]	≤ 4.00
C[C@@H](c1ccccc1)N(CCO)CCOc1ccc2c(c1)CCC(=O)N2 [ALDHI-3007, 6-[2-[2-hydroxyethyl-[(1S)-1-phenylethyl]amino]ethoxy]-3,4-dihydro-1H-quinolin-2-one]	≤ 4.00
CN(CCOc1ccc2c(c1)CCC(=O)N2)C(=O)c1cccc(F)c1 [ALDHI-3008, 3-fluoro-N-methyl-N-[2-[(2-oxo-3,4-dihydro-1H-quinolin-6-yl)oxy]ethyl]benzamide]	≤ 4.00
CN(CCOc1ccc2c(c1)CCC(=O)N2)Cc1cccnc1 [ALDHI-3010, 6-[2-[methyl(3-pyridylmethyl)amino]ethoxy]-3,4-dihydro-1H-quinolin-2-one]	≤ 4.00
CN(CCOc1ccc2c(c1)CCC(=O)N2)C(=O)c1cccnc1 [ALDHI-3013, N-methyl-N-[2-[(2-oxo-3,4-dihydro-1H-quinolin-6-yl)oxy]ethyl]pyridine-3-carboxamide]	≤ 4.00
